The values below are quoted from earlier work in patent EP0558321A1 (priority 1992, dated 1993).

In data set [1] the test system is influenza virus. The conditions noted are these: from "Acta Virol.", 28, pp. 501-507 (1984); cited from earlier work.
In a further data set the test system is herpes virus. To be noted: from "J. Gen. Virol.", 67, pp. 1115-1122 (1986); cited from earlier work.
Data set [2] has as its system influenza virus. To be noted: prior art statement; clinical efficacy not yet verified; cited from earlier work.

Turning to `OC(CCN1CCCCC1)(c1ccccc1)C1C2CC3C(C2)C31` (stereo not drawn) [Norakin], in the data set on influenza virus [1], the “anti influenza virus action” value is “confirmed to have an anti influenza virus action”. Moreover, the “anti-viral activity against herpes virus” value in the data set on herpes virus is “lack in anti-viral activity against herpes virus”.
`N#C[N-]c1nncs1.[Na+]` [LY253963]: the “activity against influenza virus in animal tests” value with influenza virus [2] is “resistant to influenza virus in animal tests”.
